The text below walks through data of patent EP1235797B1, “ARALKYL-1,2-DIAMINES HAVING CALCIMIMETIC ACTIVITY AND PREPARATION MODE” (CENTRE NATIONAL DE LA RECHERCHE SCIENTIFIQUE (CNRS), priority 1999, dated 2001).

Data set [1] concerns the target T1, récepteurs de la parathyroïde (Rattus norvegicus, UniProt P48442).
T1 construct: from tissue; host or cells: rat parathyroid gland (in vivo)
T1 sequence (P48442 20-1079): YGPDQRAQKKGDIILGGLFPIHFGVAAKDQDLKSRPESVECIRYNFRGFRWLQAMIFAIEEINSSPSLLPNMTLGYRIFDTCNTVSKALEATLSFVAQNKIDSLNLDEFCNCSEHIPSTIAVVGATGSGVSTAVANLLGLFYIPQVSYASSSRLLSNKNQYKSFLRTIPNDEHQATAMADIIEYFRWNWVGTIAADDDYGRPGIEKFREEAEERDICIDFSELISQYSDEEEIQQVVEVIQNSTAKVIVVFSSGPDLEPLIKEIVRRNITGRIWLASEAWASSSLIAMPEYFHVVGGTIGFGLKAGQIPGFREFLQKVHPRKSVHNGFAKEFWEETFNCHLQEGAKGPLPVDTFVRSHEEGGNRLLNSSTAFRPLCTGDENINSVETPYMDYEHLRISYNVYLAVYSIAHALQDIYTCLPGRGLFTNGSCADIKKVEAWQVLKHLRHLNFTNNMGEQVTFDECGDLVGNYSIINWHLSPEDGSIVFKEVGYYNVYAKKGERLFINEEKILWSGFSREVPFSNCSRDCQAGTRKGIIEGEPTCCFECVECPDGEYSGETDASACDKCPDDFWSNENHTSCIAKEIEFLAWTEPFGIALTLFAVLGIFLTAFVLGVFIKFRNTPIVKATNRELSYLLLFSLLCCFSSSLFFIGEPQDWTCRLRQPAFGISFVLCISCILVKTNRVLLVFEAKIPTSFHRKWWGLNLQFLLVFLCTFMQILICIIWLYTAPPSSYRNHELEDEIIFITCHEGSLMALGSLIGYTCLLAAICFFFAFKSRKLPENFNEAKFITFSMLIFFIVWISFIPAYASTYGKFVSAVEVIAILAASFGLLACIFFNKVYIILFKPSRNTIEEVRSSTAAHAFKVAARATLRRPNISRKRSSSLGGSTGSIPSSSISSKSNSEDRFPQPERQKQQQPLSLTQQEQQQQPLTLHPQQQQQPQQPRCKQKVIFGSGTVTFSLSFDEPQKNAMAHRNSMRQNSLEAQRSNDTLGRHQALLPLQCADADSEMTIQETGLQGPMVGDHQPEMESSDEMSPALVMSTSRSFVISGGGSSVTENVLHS
The settings on record: experimental trials in the rat; cited from earlier work.

Data set [2] deals with T2, CaSR de rat (Rattus norvegicus, UniProt P48442).
T2 construct: expressed in transfected cells; host or cells: CHO (Chinese hamster ovary) cells, line CHO(CaSR)
T2 sequence (P48442 20-1079): T1 sequence (P48442 20-1079)
Kind of data set: Accumulation of tritiated inositol phosphates ([3H]IP) in transfected CHO(CaSR) cells. In kind it is cell-based. The settings on record: compound 10 µM; for Accumulation d'(^3H)-IP % du taux basal. CHO (CaSR) / activity at 10 µM: basal level in presence of 2 mM Ca^2+ = 100 %; for activity at 10 µM: read-out: Accumulation d'(^3H)-IP % du taux basal. CHO (CaSR); for activation at 10 µM: read-out: Accumulation d'(^3H)-IP % de la réponse 10mM Ca^2+ ± E.S. The source says: L'ADN complémentaire codant pour le CaSR de rat a été isolé à partir d'une banque ADNc de striatum de rat (Ruat et al, Proc. Natl. Acad. Sci., 1995). Ce récepteur est identique au niveau de sa séquence en acides aminés à celui exprimé dans les autres tissus. Des cellules ovariennes de hamster chinois (CHO) transfectées exprimant le CaSR de rat (CHO(CaSR)) ont été caractérisées et les signaux chimiques (seconds messagers) induits par l'activation de ce récepteur ont été analysés. Ainsi, un test biochimique permettant de mesurer l'accumulation d'inositols phosphates tritiés [^3H]IP en réponse à l'activation du récepteur a été mis au point (Ruat et al, J. Biol. Chem., 1996; Ferry et al, Biochem. Biophys. Res. Commun., 1997).
L'activité calcimimétique des composés a été estimée en mesurant l'accumulation d'inositols phosphates tritiés induite par 10 µM de chacun des composés en présence de 2 mM de Ca^2+ dans les cellules CHO(CaSR) (Ferry et al, Biochem Biophys Res Commun, 1997).
Cette activation a été comparée à celle induite par le composé NPS-R- 568, un calcimimétique de référence et utilisé à une concentration de 10 µM (Tableau 1) (Ferry et al, Biochem Biophys Res Commun, 1997; Nemeth et al, Proc Natl Acad Sci USA, 1997).
Dans le tableau 1, l'activité calcimimétique des composés PHD est comparée à celle d'un composé de référence, le NPS-R-568 utilisé à la même concentration et dans les mêmes conditions expérimentales. Cette activité est exprimée en pourcentage de l'activité de 10 mM de Ca^2+. Les moyennes ± erreurs standards de 2 à 5 manipulations indépendantes sont indiquées. Les expériences ont été réalisées en présence de 2 mM de Ca^2+.
(§1) L'accumulation d'inositols phosphates tritiés est exprimée en pourcentage du taux de base observé en présence de 2 mM Ca^2+ (100 %) dans les cellules CHO(WT*) ou CHO(CaSR).

Data set [3] concerns cellules CHO(WT*). Kind of data set: Specificity control: [3H]IP accumulation in CHO(WT*) control cells transfected with the plasmid alone, not expressing CaSR. In kind it is cell-based, hamster chinois. Particulars: compound 10 µM, basal level in presence of 2 mM Ca^2+ = 100 %; for activity at 10 µM: read-out: Accumulation d'(^3H)-IP % du taux basal. CHO (WT*). On the procedure:
Les molécules PHD, utilisées à une concentration de 10 µM ne conduisent pas ou peu à l'accumulation d'[^3H]IP dans des cellules CHO(WT*) témoins ce qui suggère leur spécificité d'action vis-à-vis du CaSR (Tableau 2). Les cellules CHO(WT*) ont été tranfectées avec le plasmide seul et n'expriment pas le CaSR.
as §1

Data set [4] deals with glande parathyroïdienne. Particulars: rat model of chronic renal failure (Wada et al, J. Clin. Invest., 1997); cited from earlier work.
The conditions of data set [5]: clinical trials Phase I - II, NPS Pharmaceutical (Nemeth et al, 1999); cited from earlier work.
Data set [6] has as its system ostéitis fibrosa. Particulars: rat (Wada et al, Kidney International, 1998); cited from earlier work.
Data set [7] relates to PTH. Particulars: male patients with chronic renal failure (Antansen et al, Kidney International, 1998); cited from earlier work.
The test system of data set [8] is PTH. Particulars: oral route, postmenopausal women with primary hyperparathyroidism (Silverberg et al, 1997); cited from earlier work.
[9] abbreviates: in presence of 2 mM Ca^2+, mean ± standard error of 2 to 5 independent experiments.

Take `COc1cccc([C@@H](C)NCCCc2ccccc2)c1` [NPS R-467]: the “sélectivité vis à vis des récepteurs de la parathyroïde comparativement à ceux de la glande thyroïde” value in data set [1] was “plus sélectif”.

Consider `COc1cccc([C@@H](C)NCCCc2ccccc2Cl)c1` [NPS R-568, reference compound], for which, in data set [2], the “Accumulation d'(^3H)-IP % du taux basal. CHO (CaSR)” value was “une forte accumulation” and the activity at 10 µM amounted to 454 ± 33%. For the same compound, in data set [2] (setting [9]), the “Accumulation d'(^3H)-IP % de la réponse 10mM Ca^2+ ± E.S.” value is 106 ± 15% and the activation at 10 µM was found to be 100%. Moreover, in data set [3], the “Accumulation d'(^3H)-IP % du taux basal. CHO (WT*)” value was “peu ou pas d'accumulation” and the activity at 10 µM was 119 ± 9%. Further, the “réduire la prolifération cellulaire observée dans la glande parathyroïdienne” value in data set [4] was 20-50%. Moreover, the bio-disponibilité entry in data set [5] is “faible”. In addition, the ostéitis fibrosa result in data set [6] is reported as “réduit ou élimine”. Further, the “concentrations de PTH” value in data set [7] was “réduit”. Besides, the “concentrations de PTH et des ions Ca^2+ libres sériques” value in data set [8] was “abaisser”.

For the compound `CC(NCC(Cc1ccccc1)NCc1cccc(Cl)c1)c1cccc2ccccc12` (stereo not shown) [PHD 312], in data set [2], the “Accumulation d'(^3H)-IP % du taux basal. CHO (CaSR)” value was “une forte accumulation” and the activity at 10 µM was 383 ± 39%. In addition, the activation at 10 µM in data set [2] (setting [9]) was found to be 78 ± 6%. In data set [3], the “Accumulation d'(^3H)-IP % du taux basal. CHO (WT*)” value is on record as “peu ou pas d'accumulation” and the activity at 10 µM is 121 ± 6%.

As to `COc1ccc(S(=O)(=O)NC(CNC(C)c2cccc3ccccc23)Cc2ccccc2)cc1OC` (stereo not shown) [PHD 321, N^2(3,4-diméthoxybenzènesulfonyl)-N^1[1-(1-naphtyl)éthyl]-3-phénylpropane-1,2-diamine], in data set [2], the “Accumulation d'(^3H)-IP % du taux basal. CHO (CaSR)” value was “une forte accumulation” and the activity at 10 µM was determined as 446 ± 22%. For the same compound, the activation at 10 µM in data set [2] (setting [9]) was 97 ± 13%. In data set [3], the “Accumulation d'(^3H)-IP % du taux basal. CHO (WT*)” value is on record as “peu ou pas d'accumulation” and the activity at 10 µM stood at 124 ± 4%.
